How the values were obtained:
[1] = in words; cited from earlier work
[2] = in words; cited from earlier work; remark: listed apart in the source
thrombin = settings: in words; cited from earlier work
[3] = test system: thrombotic occlusion in rat carotid artery; settings: dose that prevents complete thrombotic occlusion in 50% of animals, FeCl3 model; cited from earlier work
[4] = in words; cited from earlier work; remark: listed apart in the source
[5] = test system: atherosclerotic rabbit femoral artery; settings: in words; cited from earlier work
Trypsin = target: T1, Trypsin (Bos taurus, UniProt P00760); test: Trypsin IC50 assay; format: biochemical, bovine; settings: 30-minute incubation
T1 construct: bovine pancreatic trypsin; purchased Worthington Biochemical Corp. TRL3; host or cells: bovine pancreas
T1 sequence (P00760 24-246): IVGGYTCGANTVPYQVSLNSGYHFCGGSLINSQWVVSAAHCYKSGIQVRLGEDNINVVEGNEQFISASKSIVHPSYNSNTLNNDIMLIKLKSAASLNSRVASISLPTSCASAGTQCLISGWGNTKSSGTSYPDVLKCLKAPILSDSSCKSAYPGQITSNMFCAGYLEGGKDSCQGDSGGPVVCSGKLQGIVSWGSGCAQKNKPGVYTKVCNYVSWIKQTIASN
Description: (§1) The ability of compounds of this invention to act as a selective inhibitor of thrombin catalytic activity was assessed by determining the concentration of test compound which inhibited the activity of this enzyme by 50%, (IC50), and comparing this value to that determined for some or all of the following related serine proteases: recombinant tissue plasminogen activator (rt-PA), plasmin, activated protein C (aPC), chymotrypsin and trypsin.
(§2) The buffer used for all assays was HBSA (10 mM HEPES, pH 7.5, 150 mM sodium chloride, 0.1% bovine serum albumin). The assay for IC50 determinations was conducted by combining in appropriate wells of a Corning microtiter plate, 50 microliters of HBSA, 50 microliters of the test compound at a specified concentration (covering a broad concentration range) diluted in HBSA (or HBSA alone for Vo (uninhibited velocity) measurement), and 50 microliters of the enzyme diluted in HBSA. […] The initial velocity of chromogenic substrate hydrolysis was measured by the change in absorbance at 405 nm using a Thermo Max® Kinetic Microplate Reader over a 5 minute period in which less than 5% of the added substrate was utilized. […]
Trypsin catalytic activity was determined using the chromogenic substrate, S-2222 (benzoyl-L-isoleucine-L-glutamic acid-(gamma-methyl ester)-L-arginine-p-nitroanilide), which was obtained from DiaPharma Group. […]

Chymotrypsin = target: T2, Chymotrypsin (Bos taurus, UniProt P00766); test: Chymotrypsin IC50 assay; format: biochemical, bovine; settings: maximal concentration 2500 nM
T2 construct: bovine pancreatic a-chymotrypsin; purchased Worthington Biochemical Corp. CDI; host or cells: bovine pancreas
Description: as §1, §2
Chymotrypsin catalytic activity was determined using the chromogenic substrate, S-2586 (methoxy-succinyl-L-arginine-L-prolyl-L-tyrosyl-p-nitroanilide), which was obtained from DiaPharma Group. […]

Plasmin = Plasmin (Homo sapiens, UniProt P00747); test: Plasmin IC50 assay; format: biochemical; settings: maximal concentration 2500 nM
Description: as §1, §2
Plasmin catalytic activity was determined using the chromogenic substrate, S-2366 (L-pyro-Glu-Pro-Arg-pNa.HCl), which was obtained from DiaPharma Group. […]

human alpha-thrombin [6] = target: T3, human alpha-thrombin (Homo sapiens, UniProt P00734); test: Thrombin (fIIa) IC50 assay for specificity determination; format: biochemical; settings: 30-minute incubation
Description: as §1, §2
Enzyme activity was determined using the chromogenic substrate, Pefachrome t-PA (CH3 SO2 -D-hexahydrotyrosine-glycyl-L-Arginine-p-nitroaniline, obtained from Pentapharm Ltd.). […]

human alpha-thrombin [7] = target: T3, human alpha-thrombin; test: in vitro thrombin inhibition assay (Ki, chromogenic substrate Pefachrome t-PA); format: biochemical; settings: human alpha-thrombin 0.2 nM; steady state velocities over 60 minutes; pH 7.5
Description: The ability of the compounds of Example 11 and 14 to act as an inhibitor of thrombin catalytic activity was assessed by determining the compounds, inhibition constant, Ki.
Enzyme activity was determined using the chromogenic substrate Pefachrome t-PA (CH3 SO2 -D-hexahydrotyrosine-glycyl-L-arginine-p-Nitroanilide), obtained from Pentapharm Ltd. The substrate was reconstituted in deionized water prior to use. Purified human alpha-thrombin (3000U/mg specific activity) was obtained from Enzyme Research Laboratories, Inc. The buffer used for all assays was HBSA (10 mM HEPES, pH 7.5, 150 mM sodium chloride, 0.1% bovine serum albumin).
At time zero, 50 microliters of alpha-thrombin diluted in HBSA were added to the wells, yielding a final concentration of 0.2 nM in a total volume of 250 microliters. Velocities of chromogenic substrate hydrolysis which occurred over 60 minutes were measured by the change in absorbance at 405 nm using a Thermo Max® Kinetic Microplate Reader. […] The extent of substrate hydrolysis was less than 5% over the course of this assay.

aPC = target: T4, aPC (Homo sapiens, UniProt P04070); test: Activated protein C (aPC) IC50 assay; format: biochemical; settings: maximal concentration 2500 nM
T4 construct: purchased Hematologic Technologies, Inc
Description: as §1, §2
aPC catalytic activity was determined using the chromogenic substrate, Pefachrome PC (delta-carbobenzloxy-D-lysine-L-prolyl-L-arginine-p-nitroanilide), obtained from Pentapharm Ltd.). […]

rt-PA = target: T5, rt-PA (Homo sapiens, UniProt P00750); test: Recombinant tissue plasminogen activator (rt-PA) IC50 assay; format: biochemical; settings: maximal concentration 2500 nM
T5 construct: purchased Genentech Inc. Activase
Description: as §1, §2
rt-PA catalytic activity was determined using the substrate, Pefachrome t-PA (CH3 SO2 -D-hexahydrotyrosine-glycyl-L-arginine-p-nitroanilide, obtained from Pentapharm Ltd.). […]

T4 sequence (P04070 212-450 limits assumed): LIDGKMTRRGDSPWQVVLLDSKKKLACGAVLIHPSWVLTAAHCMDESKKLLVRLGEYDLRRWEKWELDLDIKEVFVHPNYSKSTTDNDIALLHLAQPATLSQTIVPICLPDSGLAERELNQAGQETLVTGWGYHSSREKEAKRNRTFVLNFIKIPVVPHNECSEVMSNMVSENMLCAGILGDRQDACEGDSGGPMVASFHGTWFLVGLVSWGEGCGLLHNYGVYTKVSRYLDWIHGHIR
T4 sequence (P04070 43-197 limits assumed): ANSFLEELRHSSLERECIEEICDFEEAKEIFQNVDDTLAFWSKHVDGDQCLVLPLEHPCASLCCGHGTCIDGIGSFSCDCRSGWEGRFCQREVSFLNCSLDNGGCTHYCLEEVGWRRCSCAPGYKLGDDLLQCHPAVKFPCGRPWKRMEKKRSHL
Chain of Plasmin (P00747 581-810 limits assumed): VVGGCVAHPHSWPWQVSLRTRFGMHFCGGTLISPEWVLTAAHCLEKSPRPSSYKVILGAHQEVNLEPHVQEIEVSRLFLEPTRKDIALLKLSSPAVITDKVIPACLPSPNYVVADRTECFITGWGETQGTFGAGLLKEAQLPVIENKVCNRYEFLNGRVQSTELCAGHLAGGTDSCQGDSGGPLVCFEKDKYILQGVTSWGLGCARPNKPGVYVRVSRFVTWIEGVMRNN
Chain of Plasmin (P00747 97-580 limits assumed): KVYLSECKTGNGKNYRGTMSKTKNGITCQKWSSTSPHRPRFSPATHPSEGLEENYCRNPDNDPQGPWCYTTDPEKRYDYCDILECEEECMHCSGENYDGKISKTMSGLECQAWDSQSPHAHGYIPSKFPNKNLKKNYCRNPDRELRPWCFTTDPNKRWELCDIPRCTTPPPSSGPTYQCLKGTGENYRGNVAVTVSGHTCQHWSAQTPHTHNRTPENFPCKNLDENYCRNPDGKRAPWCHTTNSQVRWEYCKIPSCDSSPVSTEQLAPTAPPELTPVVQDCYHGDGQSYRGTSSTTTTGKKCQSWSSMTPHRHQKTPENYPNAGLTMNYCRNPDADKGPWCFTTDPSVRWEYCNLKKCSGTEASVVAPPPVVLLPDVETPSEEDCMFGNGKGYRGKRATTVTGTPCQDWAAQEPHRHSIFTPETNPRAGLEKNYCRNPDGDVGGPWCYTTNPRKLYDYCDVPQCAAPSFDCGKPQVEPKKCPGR
T5 sequence (P00750 36-562): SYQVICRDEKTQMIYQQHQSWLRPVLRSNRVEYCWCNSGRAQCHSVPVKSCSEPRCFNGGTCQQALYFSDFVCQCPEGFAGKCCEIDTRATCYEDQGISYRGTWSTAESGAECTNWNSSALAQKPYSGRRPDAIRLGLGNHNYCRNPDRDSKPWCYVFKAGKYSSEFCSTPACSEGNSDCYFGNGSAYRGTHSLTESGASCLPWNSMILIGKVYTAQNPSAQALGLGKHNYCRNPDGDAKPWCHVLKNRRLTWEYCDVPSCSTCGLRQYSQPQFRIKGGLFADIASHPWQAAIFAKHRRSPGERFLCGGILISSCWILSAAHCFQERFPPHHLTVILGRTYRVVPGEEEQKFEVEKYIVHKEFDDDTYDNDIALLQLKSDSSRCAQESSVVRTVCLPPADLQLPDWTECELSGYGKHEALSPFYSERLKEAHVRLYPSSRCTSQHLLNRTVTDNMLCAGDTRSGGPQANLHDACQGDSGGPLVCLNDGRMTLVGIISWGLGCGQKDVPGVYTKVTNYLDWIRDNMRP

IC50 (Trypsin) | IC50 (Chymotrypsin) | IC50 (Plasmin) | IC50 (human alpha-thrombin [6]) | Ki (human alpha-thrombin [7]) | IC50 (aPC) | IC50 (rt-PA) | Compound | selectivity of thrombin inhibition (thrombin) | also measured
 |  |  |  |  |  |  | N=C(N)c1ccc(CC(=O)C(=O)O)cc1 [APPA, 4-amidinophenylpyruvic acid] | non-selective, inhibiting trypsin, plasmin and kallikrein | pharmacokinetics [1]: favourable pharmacokinetics; toxicity [2]: low toxicity
 |  |  |  |  |  |  | CC1CNc2c(cccc2S(=O)(=O)N[C@@H](CCCNC(=N)N)C(=O)N2CC[C@@H](C)C[C@@H]2C(=O)O)C1 (stereo partly drawn) [Argatroban, 2R,4R-4-methyl-1-[N-2-(3-methyl-1,2,3,4-tetrahydro-8-quinolinesulfonyl)-L-argininy]-2-piperdinecarboxylic acid] |  | ED50 [3]: 3.8 mg/kg
 |  |  |  |  |  |  | Hirudin |  | antithrombotic / anticoagulant effect [4]: potent antithrombotic agent in vivo; inhibition of smooth muscle proliferation and associated restenosis [5]: effectively inhibit smooth muscle proliferation and the associated restenosis
 |  |  |  |  |  |  | CS(=O)(=O)O.CS(=O)(=O)O.N=C(N)Nc1ccc(C(=O)Oc2ccc3cc(C(=N)N)ccc3c2)cc1 [FUT 175, 6-amidino-2-naphthyl-4-guanidinobenzoate dimethanesulfonate] | non-selective | 
1810 nM | > 2500 nM | > 2500 nM | 1.44 nM | 1 nM | > 2500 nM | > 2500 nM | COc1c(NS(=O)(=O)Cc2ccccc2)ccc(C)c1CC(=O)N[C@H](C=O)CCCN=C(N)N [Example 14, N-[2-methoxy-3-(N-benzylsulfonylamino)-6-methylphenylacetyl]-L-argininal] |  | 
1140 nM | > 2500 nM | > 2500 nM | 3.19 nM | 0.79 nM | > 2500 nM | > 2500 nM | Cc1ccc(NS(=O)(=O)Cc2ccccc2)c(O)c1CC(=O)N[C@H](C=O)CCCN=C(N)N [Example 11, N-[2-hydroxy-3-(N-benzylsulfonylamino)-6-methylphenylacetyl]-L-argininal] |  | 

Reference: patent publication US6011047A, “Substituted 3-amino-2-hydroxyphenylacetamide derivatives as enzyme inhibitors” (priority 1997, dated 2000)
